In ChEMBL document CHEMBL1201862, “PubChem BioAssay data set” (2004):
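Five compound concentrations were applied to cells in 96-well plates for 48 hours; endpoints were derived by simple linear interpolation of the resulting dose-response curve. At the GI50, growth is halved.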 Calls of active or inactive are those of the source. No stated cut-off is given here; in the data, active = GI50 up to about 1.1 µM and inactive = higher.

Key:
Assay in all cases: growth of human tumour cells (NCI), 48 h
COLO 205 = system: COLO 205
HOP-92 = system: HOP-92
SK-MEL-5 = system: SK-MEL-5
NCI-H460 = system: NCI-H460
HCT-15 = system: HCT-15
A549 = system: A549
T47D = system: T47D
HOP-62 = system: HOP-62
Malme-3M = system: Malme-3M
CAKI-1 = system: CAKI-1
BT-549 = system: BT-549
SW-620 = system: SW-620
K562 = system: K562
CCRF-CEM = system: CCRF-CEM
SF-539 = system: SF-539
HCC 2998 = system: HCC 2998
SNB-19 = system: SNB-19
RXF 393 = system: RXF 393
SF-268 = system: SF-268

Compound | GI50 (COLO 205) | GI50 (HOP-92) | GI50 (SK-MEL-5) | GI50 (NCI-H460) | GI50 (HCT-15) [µM] | GI50 (A549) | GI50 (T47D) | GI50 (HOP-62) | GI50 (Malme-3M) | GI50 (CAKI-1) | GI50 (BT-549) | GI50 (SW-620) | GI50 (K562) | GI50 (CCRF-CEM) | GI50 (SF-539) | GI50 (HCC 2998) | GI50 (SNB-19) | GI50 (RXF 393) | GI50 (SF-268)
CC(=O)Nc1ccc(Nc2cc(=O)n(C)c(=O)[nH]2)cc1 | > 100 µM (inactive) | > 100 µM (inactive) | > 100 µM (inactive) | > 100 µM (inactive) | > 100 | > 100 µM (inactive) | > 100 µM (inactive) | > 100 µM (inactive) | > 100 µM (inactive) | > 100 µM (inactive) | > 100 µM (inactive) | > 100 µM (inactive) | > 100 µM (inactive) | > 100 µM (inactive) | > 100 µM (inactive) | > 100 µM (inactive) | > 100 µM (inactive) | > 100 µM (inactive) | > 100 µM (inactive)
Cc1cc(NS(=O)(=O)c2ccc(NC(=O)c3ccc4nc5ccccc5c(Nc5ccc(S(N)(=O)=O)cc5)c4c3)cc2)no1 | 20.6 µM (inactive) | 24.6 µM (inactive) | 25.1 µM (inactive) | 20.7 µM (inactive) | 19.2 | 24.6 µM (inactive) | 24.2 µM (inactive) | 33.6 µM (inactive) | 21.5 µM (inactive) | 38.1 µM (inactive) | 28 µM (inactive) | 28.1 µM (inactive) | 19.8 µM (inactive) | 22.6 µM (inactive) | 27.9 µM (inactive) | 38.9 µM (inactive) | 58.2 µM (inactive) | 23.4 µM (inactive) | 30.5 µM (inactive)
CCn1c2ccc(C(=O)CCCN(C)C)cc2c2cc(C(=O)CCCN(C)C)ccc21 | 1.06 µM (active) | 3.03 µM (inactive) | 4.69 µM (inactive) | 0.421 µM (active) | 1.27 | 0.867 µM (active) | 10.2 µM (inactive) | 0.701 µM (active) | 2.81 µM (inactive) | 2.55 µM (inactive) | 3.38 µM (inactive) | 0.53 µM (active) | 2.05 µM (inactive) | 0.395 µM (active) | 0.805 µM (active) | 1.69 µM (inactive) | 1.6 µM (inactive) | 1.68 µM (inactive) | 1.75 µM (inactive)
CO[P@@]1(=O)O[C@@H](c2ccccc2)[C@H](O)[C@@]1(O)c1ccccc1 | > 100 µM (inactive) | > 100 µM (inactive) | > 100 µM (inactive) | > 100 µM (inactive) | > 100 | > 100 µM (inactive) | > 100 µM (inactive) | – | > 100 µM (inactive) | > 100 µM (inactive) | > 100 µM (inactive) | > 100 µM (inactive) | > 100 µM (inactive) | > 100 µM (inactive) | > 100 µM (inactive) | – | > 100 µM (inactive) | > 100 µM (inactive) | > 100 µM (inactive)
Cc1cc(S(=O)(=O)Nc2nc3cc(-c4ccc(Cl)cc4)sc3c(=O)n2N)c(S)cc1Cl | 17 µM (inactive) | 72.9 µM (inactive) | 51.1 µM (inactive) | 36.6 µM (inactive) | 45.6 | > 100 µM (inactive) | 31.3 µM (inactive) | 36.3 µM (inactive) | > 100 µM (inactive) | > 100 µM (inactive) | > 100 µM (inactive) | 39.4 µM (inactive) | 32.7 µM (inactive) | 27.2 µM (inactive) | – | 94.4 µM (inactive) | 80.2 µM (inactive) | 37.2 µM (inactive) | 86.3 µM (inactive)
CC(C)(C)C1CCC2c3c([nH]c4ccccc34)C3C(=O)N(c4cccc(Cl)c4)C(=O)C3C2C1 (stereo not drawn) | 12 µM (inactive) | 5.05 µM (inactive) | 13.5 µM (inactive) | 4.63 µM (inactive) | 14.5 | 14.2 µM (inactive) | 9.16 µM (inactive) | 0.518 µM (active) | 16.6 µM (inactive) | 17.8 µM (inactive) | 21.1 µM (inactive) | 9.62 µM (inactive) | 2.44 µM (inactive) | 4.3 µM (inactive) | 17.5 µM (inactive) | 3.72 µM (inactive) | 33.5 µM (inactive) | 8.36 µM (inactive) | 13 µM (inactive)
CC(=O)c1ccc2c(c1)CC1(C2)Cc2ccccc2C1=O (stereo not drawn) | 34 µM (inactive) | 22.4 µM (inactive) | 21.8 µM (inactive) | 62.1 µM (inactive) | 51.5 | 37.8 µM (inactive) | 25.6 µM (inactive) | > 100 µM (inactive) | 28.4 µM (inactive) | 33.1 µM (inactive) | 43.4 µM (inactive) | > 100 µM (inactive) | 36.1 µM (inactive) | 29.5 µM (inactive) | > 100 µM (inactive) | 40.6 µM (inactive) | > 100 µM (inactive) | 42.5 µM (inactive) | 74 µM (inactive)
O=c1[nH]c(=O)n(C2C(CO)OC(CO)C2O)cc1F (stereo not drawn) | > 100 µM (inactive) | > 100 µM (inactive) | > 100 µM (inactive) | > 100 µM (inactive) | > 100 | > 100 µM (inactive) | > 100 µM (inactive) | > 100 µM (inactive) | > 100 µM (inactive) | > 100 µM (inactive) | > 100 µM (inactive) | > 100 µM (inactive) | > 100 µM (inactive) | > 100 µM (inactive) | > 100 µM (inactive) | > 100 µM (inactive) | > 100 µM (inactive) | > 100 µM (inactive) | > 100 µM (inactive)
Nc1nc(Cl)cc(NCCC2(CO)CCC2)n1 | > 100 µM (inactive) | 93.3 µM (inactive) | > 100 µM (inactive) | > 100 µM (inactive) | > 100 | > 100 µM (inactive) | > 100 µM (inactive) | > 100 µM (inactive) | > 100 µM (inactive) | > 100 µM (inactive) | > 100 µM (inactive) | > 100 µM (inactive) | > 100 µM (inactive) | > 100 µM (inactive) | > 100 µM (inactive) | > 100 µM (inactive) | > 100 µM (inactive) | > 100 µM (inactive) | > 100 µM (inactive)
C[C@]12CC/C(=N\O)C=C1CC[C@@H]1[C@@H]2CC[C@]2(C)C(=N/O)/C(=C/c3ccncc3)C[C@@H]12 | 15.9 µM (inactive) | 30.5 µM (inactive) | 7 µM (inactive) | 14.6 µM (inactive) | 5.48 | 11.1 µM (inactive) | 19.7 µM (inactive) | 41.2 µM (inactive) | 37.5 µM (inactive) | 24.2 µM (inactive) | 36.1 µM (inactive) | 37.4 µM (inactive) | 26.4 µM (inactive) | – | 31.8 µM (inactive) | 19.1 µM (inactive) | 28.8 µM (inactive) | 24.3 µM (inactive) | 28.7 µM (inactive)
CCOC(=O)c1ccc(N(CCOS(C)(=O)=O)CCOS(C)(=O)=O)cc1 | 64.9 µM (inactive) | 37.6 µM (inactive) | 42.2 µM (inactive) | 37 µM (inactive) | 40.9 | 53 µM (inactive) | 43 µM (inactive) | – | 38.8 µM (inactive) | 12.6 µM (inactive) | 40.6 µM (inactive) | 32 µM (inactive) | 24.3 µM (inactive) | 23.9 µM (inactive) | 25.1 µM (inactive) | 60.3 µM (inactive) | 90.6 µM (inactive) | 20 µM (inactive) | 26.1 µM (inactive)
Nc1nn2c(C(Br)Br)cc(C(Br)Br)nc2c1[N+](=O)[O-] | 0.659 µM (active) | 1.17 µM (inactive) | 1.49 µM (inactive) | 2.41 µM (inactive) | 1.07 | 2.43 µM (inactive) | 0.667 µM (active) | 1.88 µM (inactive) | 0.738 µM (active) | 0.5 µM (active) | 0.766 µM (active) | 0.244 µM (active) | 0.248 µM (active) | 0.161 µM (active) | 0.785 µM (active) | 2.17 µM (inactive) | 1.61 µM (inactive) | 1.37 µM (inactive) | 1.88 µM (inactive)
CC1=CC(=O)/C(=C/NC(=S)NCc2ccccc2)C(=O)O1 | > 100 µM (inactive) | > 100 µM (inactive) | > 100 µM (inactive) | > 100 µM (inactive) | > 100 | > 100 µM (inactive) | > 100 µM (inactive) | > 100 µM (inactive) | > 100 µM (inactive) | > 100 µM (inactive) | > 100 µM (inactive) | > 100 µM (inactive) | – | > 100 µM (inactive) | > 100 µM (inactive) | > 100 µM (inactive) | > 100 µM (inactive) | > 100 µM (inactive) | > 100 µM (inactive)
S=C(S)N1CCN(c2ccc(Cl)c(Cl)c2)CC1 | 18.2 µM (inactive) | 22.3 µM (inactive) | 16.1 µM (inactive) | – | 34.2 | 45.8 µM (inactive) | 16.6 µM (inactive) | 29.5 µM (inactive) | 24.2 µM (inactive) | 27.5 µM (inactive) | 51.3 µM (inactive) | 21.7 µM (inactive) | 19.3 µM (inactive) | 13 µM (inactive) | 24.3 µM (inactive) | 20.8 µM (inactive) | 42.5 µM (inactive) | 56.9 µM (inactive) | 31.8 µM (inactive)
CCc1nc(N)nc(N)c1-c1ccc(NCCN)c([N+](=O)[O-])c1 | 14.2 µM (inactive) | 27.6 µM (inactive) | 9.79 µM (inactive) | 2.75 µM (inactive) | 37 | 4.19 µM (inactive) | 33.6 µM (inactive) | 18.2 µM (inactive) | 13.7 µM (inactive) | 53.1 µM (inactive) | 36.1 µM (inactive) | 5 µM (inactive) | 1.09 µM (active) | 4.41 µM (inactive) | 11.6 µM (inactive) | 10.4 µM (inactive) | 24.7 µM (inactive) | 39 µM (inactive) | 7.1 µM (inactive)
